The data set is described as follows: Solubility check of a 3.3% solution of cefixime (I) in methanol. In kind it is physicochemical. The note with it: for Solubility: 3.3% solution of cefixime (I) in methanol. Here is the method:
The most preferred embodiment of the present invention is the acidification of the filtrate obtained in step (ii) to pH 2.0 to 3.0, preferably to 2.2 to 2.4 with dilute […] filtration at 50-80°, preferably at 60-70° C., most preferably at 64-68° C.

SMILES strings stand for the structures.

Turning to `C=CC1=C(C(=O)O)N2C(=O)C(NC(=O)/C(=N\OCC(=O)O)c3csc(N)n3)C2SC1` (stereo not drawn) [cefixime (I), [6R-[6α,7β(Z)]]-7-[[(2-amino-4-thiazolyl)[(carboxymethoxy)imino]acetyl]amino]-3-vinyl-3-cephem-4-carboxylic acid], the Solubility result reads like this: (acidification and isolation of cefixime methyl ester (IV) at 25-30° C.) “Hazy”; (acidification and isolation of cefixime methyl ester (IV) at 45-47° C.) “Hazy”; (acidification and isolation of cefixime methyl ester (IV) at 65-67° C.) “Clear”. For the same compound, for the setting “acidification and isolation of cefixime ester (IV) at 50-80° C., then alkaline hydrolysis”, the “Solubility profile (in words)” value is “better solubility profile”. Further, for the setting “acidification and isolation of cefixime ester (IV) at temperature below 50° C., then alkaline hydrolysis”, the “Solubility (in words)” value was “poor solubility”.

The values are drawn from US8008478B2, “Process for the preparation of cefixime” (Lupin Limited, priority 2004, dated 2011).
